The supplement of paper PMC10307832

Tests used:
Test in all cases: relative viability (nuclei count vs DMSO), 5 days (fraction); higher = more cells survive
[1] = compound: CCOC(=O)CCNc1cc(N2CCc3ccccc3CC2)nc(-c2ccccn2)n1 [GSK-J4] + CC(=O)Nc1cccc(-n2c(=O)n(C3CC3)c(=O)c3c(Nc4ccc(I)cc4F)n(C)c(=O)c(C)c32)c1 [Trametinib] (partner 0.02 µM)
How it was run: (§1)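 After 5 days of treatment, lung cancer cells in 1536-well plates were fixed and stained in a single step (final 0.05% Triton X-100, 1% formaldehyde, 1 ug/ml Hoechst) and their nuclei counted on 4× images. Treatment had been applied by pin tool the day after seeding as one drug alone or as a fixed anchor-drug dose with five library-drug doses (not always all listed) in √10 steps. Relative viability is the nuclei count of treated wells divided by that of vehicle wells, and values are medians of duplicate plates.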

[2] = compound: CCOC(=O)CCNc1cc(N2CCc3ccccc3CC2)nc(-c2ccccn2)n1 [GSK-J4] + CS(=O)(=O)N1CCN(Cc2cc3nc(-c4cccc5[nH]ncc45)nc(N4CCOCC4)c3s2)CC1 [Pictilisib] (partner 1 µM)
How it was run: as §1

[3] = compound: CN1CCC(CC1)OC2=CC(=C(C=C2)NC3=NC=C4C(=N3)N(C(=O)N4C)C5CCCC5)OC [AZ3146] + CS(=O)(=O)CCNCc1ccc(-c2ccc3ncnc(Nc4ccc(OCc5cccc(F)c5)c(Cl)c4)c3c2)o1 [Lapatinib] (partner 2 µM)
How it was run: as §1

[4] = compound: CN1CCC(CC1)OC2=CC(=C(C=C2)NC3=NC=C4C(=N3)N(C(=O)N4C)C5CCCC5)OC [AZ3146] + O=C(c1cc(Cc2n[nH]c(=O)c3ccccc23)ccc1F)N1CCN(C(=O)C2CC2)CC1 [Olaparib] (partner 8 µM)
How it was run: as §1

Which relative viability ([1]; first compound 0.5 µM) does the source give for UMC-11 here?
The relative viability was 0.666.

What about the relative viability ([1]; first compound 1.581 µM) of the same cell line?
Its relative viability is 0.336.

And the relative viability ([1]; first compound 5 µM)?
Its relative viability is 0.255.

What about the relative viability ([1]; first compound 15.81 µM) of the same cell line?
The relative viability was 0.834.

And the relative viability ([1]; first compound 50 µM)?
The relative viability was 0.521.

What about the relative viability ([2]; first compound 0.5 µM) of the same cell line?
Its relative viability is 0.739.

And the relative viability ([2]; first compound 1.581 µM)?
The relative viability was 0.527.

And the relative viability ([2]; first compound 5 µM)?
The relative viability was 0.499.

And the relative viability ([2]; first compound 15.81 µM)?
The relative viability was 0.9.

And the relative viability ([2]; first compound 50 µM)?
Its relative viability is 0.256.

And the relative viability ([3]; first compound 0.08 µM)?
The relative viability was 0.793.

What about the relative viability ([3]; first compound 0.253 µM) of the same cell line?
The relative viability was 0.963.

And the relative viability ([3]; first compound 0.8 µM)?
Its relative viability is 0.99.

What about the relative viability ([3]; first compound 2.53 µM) of the same cell line?
The relative viability was 0.978.

And the relative viability ([3]; first compound 8 µM)?
The relative viability was 0.531.

And the relative viability ([4]; first compound 0.08 µM)?
The relative viability was 0.396.

What about the relative viability ([4]; first compound 0.253 µM) of the same cell line?
Its relative viability is 0.405.

What about the relative viability ([4]; first compound 0.8 µM) of the same cell line?
The relative viability was 0.36.

What about the relative viability ([4]; first compound 2.53 µM) of the same cell line?
The relative viability was 0.326.

What about the relative viability ([4]; first compound 8 µM) of the same cell line?
The relative viability was 0.279.
